Test results published in patent US12311044B2, “Antimicrobial composition” (priority 2018, dated 2025).

Each compound was assayed on total salivary bacterial pool (mixed oral bacteria) (assay: Malodour assay using lead acetate paper (H2S production by pooled salivary bacteria)). Details: pooled human saliva bacteria OD 0.4, 96 well plate, incubated overnight, ΔE of lead acetate paper; actives at the weight % of the composition.
Format: cell-based
Design: concentration or dose not given beside the values
Experimental: Malodour Assay Using Lead Acetate Paper:
The following tests were done to find out the efficacy of different compositions inside and outside the scope of the present invention:
The early morning saliva from different volunteer (5 samples) were pooled and centrifuged (Eppendorf refrigerated centrifuge 5810R at 6300 rcf/11.5 G) for 10 minutes. After that, the Supernatant which is saliva and the pellet—mixed bacterial pool (oral bacteria e.g. Streptococcus. mitis, Streptococcus. mutans, Nisseria. flava, Rothia. dentocariosa etc.,) was separated. The saliva was then filter sterilized by passing through the 50 mL conical 0.2 μm PES sterile filter (VWR lab products limited). The OD of total salivary bacterial pool culture was adjusted to 0.4 by spectrophotometer (Shimadzu UV Spectrophotometer—UV-1800) for higher pool of bacteria which is required for the assay. The assay was set up in a 96 well plate with respective culture control and DMSO control. The total reaction volume was 200 μL/well which comprises of the following: 45 μl 0.1% L-cysteine-HCl (Sigma, C1276)+TSB (Bacto, 211825, 30 g/L)+50 μL sterile Saliva+75 μL Culture+30 μL active (as per the weight % disclosed in the following table 2)+sterile distilled water.
Then the actives at desired concentration were added and the remaining volume was adjusted with sterile distilled water. After that, the wells were mixed well, and lead acetate filter was placed above the wells to capture the H2S released by the bacteria. […] The intensity of the spots was measured using a LAB reader (Minolta spectrophotometer CM 2600D). The colour reading was expressed in LAB, L* defines lightness, A* denotes the red/green value and B* the yellow/blue value. Then ΔL, ΔA and ΔB is calculated using this formula ΔL=L control−L sample, ΔA=L control−L sample, AB=L control−L sample. The total colour difference which is expressed as ΔE is calculated using this formula ΔE=√{square root over (((ΔL)^2+(ΔA)^2+(ΔB)^2))}. […] The total fold change of H2S inhibition over the control was calculated for the individual actives.

`C=CCc1ccc(O)c(-c2ccc(O)c(CC=C)c2)c1` [B, honokiol] and `CC(O)CN(CCN(CC(C)O)CC(C)O)CC(C)O` (stereo not drawn) [Example A, tetrahydroxypropyl ethylenediamine] are within error of each other in “Fold Change (total fold change of H2S inhibition over the control)” value: 1.6 ± 1.8 for the first, 0.9±0.3 for the second.

In the case of `C=CCc1ccc(O)c(-c2ccc(O)c(CC=C)c2)c1` [C, honokiol], the “Fold Change (total fold change of H2S inhibition over the control)” value is reported as 1.5 ± 1.8.
